ChEMBL document CHEMBL2074418, “Limited oral bioavailability and active epithelial excretion of paclitaxel (Taxol) caused by P-glycoprotein in the intestine” (Proc Natl Acad Sci U S A, 1997)

Columns and labels:
[1] = target: T1, ATP-dependent translocase ABCB1 (Mus musculus, UniProt P21447); assay: TP_TRANSPORTER: increase in bioavailability in mdr1a(-/-) mouse; type: functional, organism-based; conditions: in vivo
[2] = target: T1, ATP-dependent translocase ABCB1; assay: TP_TRANSPORTER: increase in plasma concentration in mdr1a(-/-) mouse; type: functional, organism-based; conditions: in vivo

T1 sequence (P21447 whole entry): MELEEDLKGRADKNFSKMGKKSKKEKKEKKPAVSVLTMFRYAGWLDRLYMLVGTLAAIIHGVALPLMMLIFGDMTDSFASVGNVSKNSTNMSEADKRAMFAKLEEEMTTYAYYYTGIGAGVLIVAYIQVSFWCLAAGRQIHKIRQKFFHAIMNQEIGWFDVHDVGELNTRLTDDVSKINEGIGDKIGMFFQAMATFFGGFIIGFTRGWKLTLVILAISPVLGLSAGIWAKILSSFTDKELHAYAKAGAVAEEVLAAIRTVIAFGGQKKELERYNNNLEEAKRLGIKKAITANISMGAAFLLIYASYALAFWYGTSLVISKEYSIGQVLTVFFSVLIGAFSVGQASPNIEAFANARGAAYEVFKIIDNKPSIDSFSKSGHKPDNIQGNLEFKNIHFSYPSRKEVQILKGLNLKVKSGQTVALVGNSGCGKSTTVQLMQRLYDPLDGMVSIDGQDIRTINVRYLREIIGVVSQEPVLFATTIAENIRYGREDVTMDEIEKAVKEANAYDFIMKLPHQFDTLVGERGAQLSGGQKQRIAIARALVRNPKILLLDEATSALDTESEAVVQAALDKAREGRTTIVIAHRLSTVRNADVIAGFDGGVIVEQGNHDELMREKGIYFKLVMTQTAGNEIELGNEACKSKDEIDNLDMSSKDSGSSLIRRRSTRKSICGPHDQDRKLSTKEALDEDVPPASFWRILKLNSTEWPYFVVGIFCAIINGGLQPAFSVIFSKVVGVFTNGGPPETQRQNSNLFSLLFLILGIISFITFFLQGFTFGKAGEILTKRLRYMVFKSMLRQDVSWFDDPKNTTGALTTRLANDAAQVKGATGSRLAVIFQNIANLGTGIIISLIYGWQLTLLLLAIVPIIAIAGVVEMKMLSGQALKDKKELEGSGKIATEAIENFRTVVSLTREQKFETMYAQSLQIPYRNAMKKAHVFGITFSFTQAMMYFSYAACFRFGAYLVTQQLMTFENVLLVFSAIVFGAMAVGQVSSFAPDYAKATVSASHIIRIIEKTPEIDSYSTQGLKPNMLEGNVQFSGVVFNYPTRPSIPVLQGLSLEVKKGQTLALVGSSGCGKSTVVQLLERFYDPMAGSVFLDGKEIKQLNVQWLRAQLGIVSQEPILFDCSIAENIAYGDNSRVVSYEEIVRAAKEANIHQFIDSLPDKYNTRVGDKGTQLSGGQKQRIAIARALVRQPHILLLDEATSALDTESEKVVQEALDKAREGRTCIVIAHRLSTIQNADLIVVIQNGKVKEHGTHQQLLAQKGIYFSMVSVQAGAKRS

## CC(=O)O[C@H]1C(=O)[C@@]2(C)[C@H]([C@H](OC(=O)c3ccccc3)[C@]3(O)C[C@H](OC(=O)[C@H](O)[C@@H](NC(=O)c4ccccc4)c4ccccc4)C(C)=C1C3(C)C)[C@]1(OC(C)=O)CO[C@@H]1C[C@@H]2O [PACLITAXEL]
[1]
  Activity: substrate [+]
[2]
  Activity: substrate [+]
